According to patent US6472348B1, “Pyridone derivatives and herbicides” (Kumiai Chemical Industry Co., Ltd., priority 1996, dated 2002):

Key:
[1] = system: pale smartweed (Po); test: Test Example 2: herbicidal effects by upland field soil treatment; type: in vivo; details: 100 g of the active ingredient per 10 ares;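 further: grade of growth control; 5 = at least 90%; 4 = 70 to 90%; 3 = 50 to 70%; 2 = 30 to 50%; 1 = 10 to 30%; 0 = under 10%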
Source text: (§1) (Test on Herbicidal Effects by Upland Field Soil Treatment)

[2] = system: barnyardgrass (Ec); test: as above; type: in vivo; details: 100 g of the active ingredient per 10 ares
Source text: as §1

[3] = system: rice flatsedge (Ci); test: as above; type: in vivo; details: 100 g of the active ingredient per 10 ares
Source text: as §1

[4] = system: Digitaria ciliaris (Di); test: as above; type: in vivo; details: 100 g of the active ingredient per 10 ares;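 further: grade of growth control; 5 = at least 90%; 4 = 70 to 90%; 3 = 50 to 70%; 2 = 30 to 50%; 1 = 10 to 30%; 0 = under 10%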
Source text: as §1

[5] = system: slender amaranth (Am); test: as above; type: in vivo; details: 100 g of the active ingredient per 10 ares
Source text: as §1

[6] = system: common lambsquarters (Ch); test: as above; type: in vivo; details: 100 g of the active ingredient per 10 ares
Source text: as §1

[7] = system: pale smartweed (Po); test: Test Example 3: herbicidal effects by upland field foliage treatment; type: in vivo; parameters: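 grade of growth control; 5 = at least 90%; 4 = 70 to 90%; 3 = 50 to 70%; 2 = 30 to 50%; 1 = 10 to 30%; 0 = under 10%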
In short: (§2)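 Weeds were sown in sand-filled pots (surface area: 120 cm^2), covered with soil and grown in a greenhouse for 2 weeks before foliar treatment. Plants then stayed in the greenhouse, and herbicidal effect was scored against graded standards on the 14th day after treatment.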

[8] = system: barnyardgrass (Ec); test: as above; type: in vivo; parameters: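 grade of growth control; 5 = at least 90%; 4 = 70 to 90%; 3 = 50 to 70%; 2 = 30 to 50%; 1 = 10 to 30%; 0 = under 10%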
In short: as §2

[9] = system: Diaitaria ciliaris (Di); test: as above; type: in vivo; parameters: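 grade of growth control; 5 = at least 90%; 4 = 70 to 90%; 3 = 50 to 70%; 2 = 30 to 50%; 1 = 10 to 30%; 0 = under 10%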
In short: as §2

[10] = system: rice flatsedge (Ci); test: as above; type: in vivo; parameters: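 grade of growth control; 5 = at least 90%; 4 = 70 to 90%; 3 = 50 to 70%; 2 = 30 to 50%; 1 = 10 to 30%; 0 = under 10%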
In short: as §2

[11] = system: slender amaranth (Am); test: as above; type: in vivo; parameters: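 grade of growth control; 5 = at least 90%; 4 = 70 to 90%; 3 = 50 to 70%; 2 = 30 to 50%; 1 = 10 to 30%; 0 = under 10%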
In short: as §2

[12] = system: common lambsquarters (Ch); test: as above; type: in vivo; parameters: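 grade of growth control; 5 = at least 90%; 4 = 70 to 90%; 3 = 50 to 70%; 2 = 30 to 50%; 1 = 10 to 30%; 0 = under 10%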
In short: as §2

[13] = system: barnyardgrass (Ec); test: Test Example 1: herbicidal effects by paddy field soil treatment; type: in vivo; details: 100 g of the active ingredient per 10 ares, 21st day after the application, index 0-5 of Table 47;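 further: grade of growth control; 5 = at least 90%; 4 = 70 to 90%; 3 = 50 to 70%; 2 = 30 to 50%; 1 = 10 to 30%; 0 = under 10%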
In short: (§3)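 Scoring of herbicidal effect came 21 days after application of 100 g active ingredient per 10 ares to flooded (3 cm) paddy-soil pots sown with barnyardgrass, monochoria and bulrush, kept in a greenhouse.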

[14] = system: monochoria (Mo); test: as above; type: in vivo; details: 100 g of the active ingredient per 10 ares, 21st day after the application, index 0-5 of Table 47;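 further: grade of growth control; 5 = at least 90%; 4 = 70 to 90%; 3 = 50 to 70%; 2 = 30 to 50%; 1 = 10 to 30%; 0 = under 10%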
In short: as §3

[15] = system: bulrush (Sc); test: as above; type: in vivo; details: 100 g of the active ingredient per 10 ares, 21st day after the application, index 0-5 of Table 47
In short: as §3

[16] = 21st day after the application, index 0-5 of Table 47
[17] = 100 g of the active ingredient per 10 ares, evaluated on the 14th day after treatment
[18] = evaluated on the 21st day after application
[19] = 100 g active ingredient per 10 ares, evaluated 14th day after treatment

Row | Structure (SMILES) | Herbicidal effects Po [1, 16] | Herbicidal effects Ec [2, 16] | Herbicidal effects Ci [3, 16] | Herbicidal effects Di [4, 16] | Herbicidal effects Am [5, 16] | Herbicidal effects Ch [6, 16] | melting point [°C] | Herbicidal effects Ec [13] | Herbicidal effects Mo [14] | Herbicidal effects Sc [15] | further results
1 | Cn1c(C(F)(F)F)ccc(-c2ccc(Cl)cc2F)c1=O [Compound No. 1-2, 3-(4-chloro-2-fluorophenyl)-1-methyl-6-trifluoromethyl-2(1H)-pyridone] | 5 | 5 | 5 | 5 | 5 | 5 | 103 to 104 | 5 | 5 | 5 | Herbicidal effects Po [7, 17]: 5; Herbicidal effects Ec [8, 17]: 5; Herbicidal effects Di [9, 17]: 5; Herbicidal effects Ci [10, 17]: 5; Herbicidal effects Am [11, 17]: 5; Herbicidal effects Ch [12, 17]: 5
2 | Nn1c(C(F)(F)F)ccc(-c2ccc(Cl)cc2Cl)c1=O [Compound No. 1-5, 1-amino-3-(2,4-dichlorophenyl)-6-trifluoromethyl-2(1H)-pyridone] | 5 | 5 | 5 | 5 | 5 | 5 | 98 to 100 | 5 | 5 | 5 | Herbicidal effects Po [7, 17]: 5; Herbicidal effects Ec [8, 17]: 5; Herbicidal effects Di [9, 17]: 5; Herbicidal effects Ci [10, 17]: 5; Herbicidal effects Am [11, 17]: 5; Herbicidal effects Ch [12, 17]: 5
3 | Cn1c(C(F)(F)F)ccc(-c2ccc(F)cc2F)c1=O [Compound No. 1-12, 3-(2,4-difluorophenyl)-1-methyl-6-trifluoromethyl-2(1H)-pyridone] | – | – | – | – | – | – | 123 to 124 | 5 | 5 | 5 | –
4 | Cn1c(C(F)(F)F)ccc(-c2cc([N+](=O)[O-])c(Cl)cc2F)c1=O [Compound No. 1-58, 3-(4-chloro-2-fluoro-5-nitrophenyl)-1-methyl-6-trifluoromethyl-2(1H)-pyridone] | – | – | – | – | – | – | 139 to 140 | 5 | 5 | 5 | –
5 | Cn1c(C(F)(F)F)ccc(-c2cc(NS(C)(=O)=O)c(Cl)cc2F)c1=O [Compound No. 1-60, 3-(4-chloro-2-fluoro-5-methylsulfonylaminophenyl)-1-methyl-6-trifluoromethyl-2(1H)-pyridone] | 5 | 5 | 5 | 5 | 5 | 5 | 113 to 114 | 5 | 5 | 5 | Herbicidal effects Po [7, 17]: 5; Herbicidal effects Ec [8, 17]: 5; Herbicidal effects Di [9, 17]: 5; Herbicidal effects Ci [10, 17]: 5; Herbicidal effects Am [11, 17]: 5; Herbicidal effects Ch [12, 17]: 5
6 | Cn1c(C(F)(F)F)ccc(-c2cc(S(C)(=O)=O)c(Cl)cc2F)c1=O [Compound No. 1-73, 3-(4-chloro-2-fluoro-5-methylsulfonylphenyl)-1-methyl-6-trifluoromethyl-2(1H)-pyridone] | 5 | 4 | 5 | 5 | 5 | 5 | 144 to 145 | 5 | 5 | 5 | –
7 | C#CCOc1cc(-c2cc(C)c(C(F)(F)F)n(C)c2=O)c(F)cc1Cl [Compound No. 1-76, 3-(4-chloro-2-fluoro-5-propargyloxyphenyl)-1,5-dimethyl-6-trifluoromethyl-2(1H)-pyridone] | 5 | 5 | 5 | 5 | 5 | 5 | 107 to 108 | 5 | 5 | 5 | Herbicidal effects Po [7, 17]: 5; Herbicidal effects Ec [8, 17]: 5; Herbicidal effects Di [9, 17]: 5; Herbicidal effects Ci [10, 17]: 5; Herbicidal effects Am [11, 17]: 5; Herbicidal effects Ch [12, 17]: 5
8 | Cn1c(C(F)(F)F)ccc(-c2cc(CBr)c(Cl)cc2F)c1=O [Compound No. 1-82, 3-(4-chloro-2-fluoro-5-bromomethylphenyl)-1-methyl-6-trifluoromethyl-2(1H)-pyridone] | 5 | 4 | 5 | 5 | 5 | 5 | 117 to 118 | 5 | 5 | 5 | Herbicidal effects Po [7, 17]: 5; Herbicidal effects Ec [8, 17]: 4; Herbicidal effects Di [9, 17]: 5; Herbicidal effects Ci [10, 17]: 5; Herbicidal effects Am [11, 17]: 5; Herbicidal effects Ch [12, 17]: 5
9 | Cn1c(C(F)(F)F)ccc(-c2cc(S(=O)(=O)Cl)c(Cl)cc2F)c1=O [Compound No. 1-84, 3-(4-chloro-5-chlorosulfonyl-2-fluorophenyl)-1-methyl-6-trifluoromethyl-2(1H)-pyridone] | – | – | – | – | – | – | 77 to 78 | – | – | – | Herbicidal effects Po [7, 17]: 5; Herbicidal effects Ec [8, 17]: 5; Herbicidal effects Di [9, 17]: 5; Herbicidal effects Ci [10, 17]: 5; Herbicidal effects Am [11, 17]: 5; Herbicidal effects Ch [12, 17]: 5
10 | Cn1c(C(F)(F)F)ccc(-c2cc([S+](C)[O-])c(Cl)cc2F)c1=O (stereo not drawn) [Compound No. 1-88, 3-(4-chloro-2-fluoro-5-methylsulfinylphenyl)-1-methyl-6-trifluoromethyl-2(1H)-pyridone] | 5 | 4 | 5 | 5 | 5 | 5 | 147 to 148 | 5 | 5 | 5 | –
11 | CCCC(O)c1cc(-c2ccc(C(F)(F)F)n(C)c2=O)c(F)cc1Cl (stereo not drawn) [Compound No. 1-193, 3-[4-chloro-2-fluoro-5-(1-hydroxybutyl)phenyl]-1-methyl-6-trifluoromethyl-2(1H)-pyridone] | – | – | – | – | – | – | 120 to 122 | 5 | 5 | 5 | Herbicidal effects Po [1, 18]: 5; Herbicidal effects Ec [2, 18]: 5; Herbicidal effects Ci [3, 18]: 5; Herbicidal effects Di [4, 18]: 5; Herbicidal effects Am [5, 18]: 5; Herbicidal effects Ch [6, 18]: 5; Herbicidal effects Po [7, 19]: 5; Herbicidal effects Ec [8, 19]: 5; Herbicidal effects Di [9, 19]: 5; Herbicidal effects Ci [10, 19]: 5; Herbicidal effects Am [11, 19]: 5; Herbicidal effects Ch [12, 19]: 5
12 | C#CCn1c(=O)oc2cc(Cl)c(-c3ccc(C(F)(F)F)n(C)c3=O)cc21 [Compound No. 3-9, 3-[6-chloro-3-(2-propynyl)-benzoxazolin-2-on-5-yl]-1-methyl-6-trifluoromethyl-2(1H)-pyridone] | – | – | – | – | – | – | 187 to 189 | 5 | 5 | 5 | Herbicidal effects Po [1, 18]: 5; Herbicidal effects Ec [2, 18]: 5; Herbicidal effects Ci [3, 18]: 5; Herbicidal effects Di [4, 18]: 5; Herbicidal effects Am [5, 18]: 5; Herbicidal effects Ch [6, 18]: 5
13 | CCOC(=O)c1cc2c(-c3ccc(C(F)(F)F)n(C)c3=O)c(F)cc(Cl)c2o1 [Compound No. 4-6, 3-(7-chloro-2-ethoxycarbonyl-5-fluorobenzofuran-4-yl)-1-methyl-6-trifluoromethyl-2-(1H)-pyridone] | – | – | – | – | – | – | 118 to 120 | 5 | 5 | 5 | Herbicidal effects Po [7, 19]: 5; Herbicidal effects Ec [8, 19]: 5; Herbicidal effects Di [9, 19]: 4; Herbicidal effects Ci [10, 19]: 5; Herbicidal effects Am [11, 19]: 5; Herbicidal effects Ch [12, 19]: 5
14 | CCC(c1cc2c(-c3ccc(C(F)(F)F)n(C)c3=O)c(F)cc(Cl)c2o1)S(C)(=O)=O (stereo not drawn) [Compound No. 4-58, 3-[7-chloro-5-fluoro-2-(1-methylsulfonylpropyl)benzofuran-4-yl]-1-methyl-6-trifluoromethyl-2-(1H)-pyridone] | – | – | – | – | – | – | 146 to 148 | – | – | – | –
15 | Cn1cc(-c2ccc(Cl)cc2Cl)c(=O)cc1C(F)(F)F [Compound No. 6-3, 5-(2,4-dichlorophenyl)-1-methyl-2-trifluoromethyl-4(1H)-pyridone] | – | – | – | – | – | – | 205 to 206 | – | – | – | –
16 | CCOC(=O)c1c(C(F)(F)F)n(C)cc(-c2cc(OC(C)C)c(Cl)cc2F)c1=O [Compound No. 6-42, 5-(4-chloro-2-fluoro-5-isopropoxyphenyl)-3-ethoxycarbonyl-1-methyl-2-trifluoromethyl-4(1H)-pyridone] | – | – | – | – | – | – | 170 to 172 | – | – | – | –
17 | CCOC(=O)c1c(C(F)(F)F)[nH]cc(-c2cc(OC(C)C)c(Cl)cc2F)c1=O [Compound No. 6-57, 5-(4-chloro-2-fluoro-5-isopropoxyphenyl)-3-ethoxycarbonyl-2-trifluoromethyl-4(1H)-pyridone] | – | – | – | – | – | – | 118 to 119 | – | – | – | –
18 | Cn1c(C(F)(F)F)cc(Cl)c(-c2ccc(Cl)cc2)c1=O [Compound No. 11-1, 3-(4-chlorophenyl)-4-chloro-1-methyl-6-trifluoromethyl-2(1H)-pyridone] | – | – | – | – | – | – | 48 to 50 | – | – | – | –
19 | Cn1c(C(F)(F)F)cc(F)c(-c2ccc(Cl)cc2)c1=O [Compound No. 11-2, 3-(4-chlorophenyl)-4-fluoro-1-methyl-6-trifluoromethyl-2(1H)-pyridone] | – | – | – | – | – | – | 120 to 122 | – | – | – | –
20 | Cn1c(C(F)(F)F)cc(Cl)c(-c2ccc(Cl)c(NS(C)(=O)=O)c2)c1=O [Compound No. 11-3, 3-(4-chloro-3-methylsulfonylaminophenyl)-4-chloro-1-methyl-6-trifluoromethyl-2(1H)-pyridone] | – | – | – | – | – | – | 161 to 163 | – | – | – | –
21 | Cn1c(C(F)(F)F)cc(=O)c(-c2ccc(Cl)cc2)c1Cl [Compound No. 13-1, 3-(4-chlorophenyl)-2-chloro-1-methyl-6-trifluoromethyl-4(1H)-pyridone] | – | – | – | – | – | – | 88 to 90 | – | – | – | –
